Laboratory results: patent US20260241012A1, “1,8-NAPHTHYRIDIN-2-ONE HETEROBIFUNCTIONAL BCL6 DEGRADERS” (Treeline Biosciences, Inc., priority 2022, published 2026)

Target: T1, N-terminal HiBiT tagged BCL6 (Homo sapiens, UniProt P41182)
T1 construct: expressed in transfected cells; host or cells: HT1080 (ATCC CCL-121), stably transduced with lentivirus pLV-UBC-N-HiBiT-BCL6-PGK-puro
Assay: HiBiT based degradation assay
Assay type: cell-based
Details: HT1080 cells expressing N-terminal HiBiT tagged BCL6, 5 hours of incubation; for Ymin (5 hr): BCL6 degradation normalized with DMSO control; for DC50: four-parameter logistic model, read-out: EC50 (5 hr)
Summary of the method: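 Degradation measured by luminescence from the Nano-Glo HiBiT lytic reagent (15 min, room temperature), normalized to DMSO controls and fitted to a four-parameter curve.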

Row | SMILES | Ymin (5 hr) | DC50
1 | CNC(=O)COc1cc2cc(Nc3nc(N4CCN(CC5CCN(c6cccc7c(C8CCC(=O)NC8=O)nn(C)c67)CC5)CC4)ncc3Cl)cnc2n(CC(F)(F)F)c1=O (centres unmarked) [Compound 170, 2-[[6-[[5-chloro-2-[4-[[1-[3-(2,6-dioxo-3-piperidyl)-1-methyl-indazol-7-yl]-4-piperidyl]methyl]piperazin-1-yl]pyrimidin-4-yl]amino]-2-oxo-1-(2,2,2-trifluoroethyl)-1,8-naphthyridin-3-yl]oxy]-N-methyl-acetamide] | ++++ (Ymin < 30%) | 10 to 100 nM
2 | CNC(=O)COc1cc2cc(Nc3nc(N4CCC(C(C)(C)N5CCN(c6ccc7c(C8CCC(=O)NC8=O)nn(C)c7c6)CC5)CC4)ncc3Cl)cnc2n(C(C)C)c1=O (centres unmarked) [Compound 171, 2-[[6-[[5-chloro-2-[4-[1-[4-[3-(2,6-dioxo-3-piperidyl)-1-methyl-indazol-6-yl]piperazin-1-yl]-1-methyl-ethyl]-1-piperidyl]pyrimidin-4-yl]amino]-1-isopropyl-2-oxo-1,8-naphthyridin-3-yl]oxy]-N-methyl-acetamide] | ++ (50% ≤ Ymin < 70%) | < 10 nM
3 | CNC(=O)COc1cc2cc(Nc3nc(N4CCN(CC5CCN(c6cccc7c(C8CCC(=O)NC8=O)nn(C)c67)CC5)C(C)(C)C4)ncc3Cl)cnc2n(C(C)C)c1=O (centres unmarked) [Compound 172, 2-[[6-[[5-chloro-2-[4-[[1-[3-(2,6-dioxo-3-piperidyl)-1-methyl-indazol-7-yl]-4-piperidyl]methyl]-3,3-dimethyl-piperazin-1-yl]pyrimidin-4-yl]amino]-1-isopropyl-2-oxo-1,8-naphthyridin-3-yl]oxy]-N-methyl-acetamide] | +++ (30% ≤ Ymin < 50%) | 10 to 100 nM
4 | CNC(=O)COc1cc2cc(Nc3nc(N4C5CC4CN(CC4CCN(c6cccc7c(C8CCC(=O)NC8=O)nn(C)c67)CC4)C5)ncc3Cl)cnc2n(C(C)C)c1=O (centres unmarked) [Compound 173, 2-[[6-[[5-chloro-2-[3-[[1-[3-(2,6-dioxo-3-piperidyl)-1-methyl-indazol-7-yl]-4-piperidyl]methyl]-3,6-diazabicyclo[3.1.1]heptan-6-yl]pyrimidin-4-yl]amino]-1-isopropyl-2-oxo-1,8-naphthyridin-3-yl]oxy]-N-methyl-acetamide] | ++ (50% ≤ Ymin < 70%) | 10 to 100 nM
5 | CNC(=O)COc1cc2cc(Nc3nc(N4C[C@H]5C[C@@H]4CN5CC4CCN(c5cccc6c(C7CCC(=O)NC7=O)nn(C)c56)CC4)ncc3Cl)cnc2n(C(C)C)c1=O (stereo partly drawn) [Compound 174a, 2-[[6-[[5-chloro-2-[(1R,4R)-5-[[1-[3-(2,6-dioxo-3-piperidyl)-1-methyl-indazol-7-yl]-4-piperidyl]methyl]-2,5-diazabicyclo[2.2.1]heptan-2-yl]pyrimidin-4-yl]amino]-1-isopropyl-2-oxo-1,8-naphthyridin-3-yl]oxy]-N-methyl-acetamide] | ++ (50% ≤ Ymin < 70%) | < 10 nM
6 | CNC(=O)COc1cc2cc(Nc3nc(N4C[C@@H]5C[C@H]4CN5CC4CCN(c5cccc6c(C7CCC(=O)NC7=O)nn(C)c56)CC4)ncc3Cl)cnc2n(C(C)C)c1=O (stereo partly drawn) [Compound 174b, 2-[[6-[[5-chloro-2-[(1S,4S)-5-[[1-[3-(2,6-dioxo-3-piperidyl)-1-methyl-indazol-7-yl]-4-piperidyl]methyl]-2,5-diazabicyclo[2.2.1]heptan-2-yl]pyrimidin-4-yl]amino]-1-isopropyl-2-oxo-1,8-naphthyridin-3-yl]oxy]-N-methyl-acetamide] | +++ (30% ≤ Ymin < 50%) | 10 to 100 nM
7 | CNC(=O)COc1cc2cc(Nc3nc(N4CCC(CN5C[C@H]6C[C@@H]5CN6c5cccc6c(C7CCC(=O)NC7=O)nn(C)c56)CC4)ncc3Cl)cnc2n(C(C)C)c1=O (stereo partly drawn) [Compound 175a, 2-[[6-[[5-chloro-2-[4-[[(1R,4R)-5-[3-(2,6-dioxo-3-piperidyl)-1-methyl-indazol-7-yl]-2,5-diazabicyclo[2.2.1]heptan-2-yl]methyl]-1-piperidyl]pyrimidin-4-yl]amino]-1-isopropyl-2-oxo-1,8-naphthyridin-3-yl]oxy]-N-methyl-acetamide] | +++ (30% ≤ Ymin < 50%) | < 10 nM
8 | CNC(=O)COc1cc2cc(Nc3nc(N4CCC(CN5C[C@@H]6C[C@H]5CN6c5cccc6c(C7CCC(=O)NC7=O)nn(C)c56)CC4)ncc3Cl)cnc2n(C(C)C)c1=O (stereo partly drawn) [Compound 175b, 2-[[6-[[5-chloro-2-[4-[[(1S,4S)-5-[3-(2,6-dioxo-3-piperidyl)-1-methyl-indazol-7-yl]-2,5-diazabicyclo[2.2.1]heptan-2-yl]methyl]-1-piperidyl]pyrimidin-4-yl]amino]-1-isopropyl-2-oxo-1,8-naphthyridin-3-yl]oxy]-N-methyl-acetamide] | +++ (30% ≤ Ymin < 50%) | < 10 nM

Results, then the compound that gave them:

Row | Ymin (5 hr) | DC50 | SMILES
9 | +++ (30% ≤ Ymin < 50%) | < 10 nM | CNC(=O)COc1cc2cc(Nc3nc(N4CC[C@H](CN5CCN(c6ccc7c(C8CCC(=O)NC8=O)nn(C)c7c6)CC5)[C@H](C)C4)ncc3Cl)cnc2n(C(C)C)c1=O (stereo partly drawn) [Compound 176a, 2-((6-((5-chloro-2-((3S,4S)-4-((4-(3-(2,6-dioxopiperidin-3-yl)-1-methyl-1H-indazol-6-yl)piperazin-1-yl)methyl)-3-methylpiperidin-1-yl)pyrimidin-4-yl)amino)-1-isopropyl-2-oxo-1,2-dihydro-1,8-naphthyridin-3-yl)oxy)-N-methylacetamide]
10 | +++ (30% ≤ Ymin < 50%) | < 10 nM | CNC(=O)COc1cc2cc(Nc3nc(N4CC[C@H](CN5CCN(c6ccc7c(C8CCC(=O)NC8=O)nn(C)c7c6)CC5)[C@@H](C)C4)ncc3Cl)cnc2n(C(C)C)c1=O (stereo partly drawn) [Compound 176b, 2-((6-((5-chloro-2-((3R,4S)-4-((4-(3-(2,6-dioxopiperidin-3-yl)-1-methyl-1H-indazol-6-yl)piperazin-1-yl)methyl)-3-methylpiperidin-1-yl)pyrimidin-4-yl)amino)-1-isopropyl-2-oxo-1,2-dihydro-1,8-naphthyridin-3-yl)oxy)-N-methylacetamide]
11 | +++ (30% ≤ Ymin < 50%) | 10 to 100 nM | CNC(=O)COc1cc2cc(Nc3nc(N4CC[C@@H](CN5CCN(c6ccc7c(C8CCC(=O)NC8=O)nn(C)c7c6)CC5)[C@@H](C)C4)ncc3Cl)cnc2n(C(C)C)c1=O (stereo partly drawn) [Compound 176c, 2-((6-((5-chloro-2-((3R,4R)-4-((4-(3-(2,6-dioxopiperidin-3-yl)-1-methyl-1H-indazol-6-yl)piperazin-1-yl)methyl)-3-methylpiperidin-1-yl)pyrimidin-4-yl)amino)-1-isopropyl-2-oxo-1,2-dihydro-1,8-naphthyridin-3-yl)oxy)-N-methylacetamide]
12 | +++ (30% ≤ Ymin < 50%) | < 10 nM | CNC(=O)COc1cc2cc(Nc3nc(N4CC[C@@H](CN5CCN(c6ccc7c(C8CCC(=O)NC8=O)nn(C)c7c6)CC5)[C@H](C)C4)ncc3Cl)cnc2n(C(C)C)c1=O (stereo partly drawn) [Compound 176d, 2-[[6-[[5-chloro-2-[(3S,4R)-4-[[4-[3-(2,6-dioxo-3-piperidyl)-1-methyl-indazol-6-yl]piperazin-1-yl]methyl]-3-methyl-1-piperidyl]pyrimidin-4-yl]amino]-1-isopropyl-2-oxo-1,8-naphthyridin-3-yl]oxy]-N-methyl-acetamide]
13 | ++++ (Ymin < 30%) | 10 to 100 nM | CNC(=O)COc1cc2cc(Nc3nc(N4CC[C@H](CN5CCN(c6cccc7c(C8CCC(=O)NC8=O)nn(C)c67)CC5)[C@H](C)C4)ncc3Cl)cnc2n(C(C)C)c1=O (stereo partly drawn) [Compound 177a, 2-((6-((5-chloro-2-((3S,4S)-4-((4-(3-(2,6-dioxopiperidin-3-yl)-1-methyl-1H-indazol-7-yl)piperazin-1-yl)methyl)-3-methylpiperidin-1-yl)pyrimidin-4-yl)amino)-1-isopropyl-2-oxo-1,2-dihydro-1,8-naphthyridin-3-yl)oxy)-N-methylacetamide]
14 | +++ (30% ≤ Ymin < 50%) | 10 to 100 nM | CNC(=O)COc1cc2cc(Nc3nc(N4CC[C@@H](CN5CCN(c6cccc7c(C8CCC(=O)NC8=O)nn(C)c67)CC5)[C@@H](C)C4)ncc3Cl)cnc2n(C(C)C)c1=O (stereo partly drawn) [Compound 177b, 2-[[6-[[5-chloro-2-[(3R,4R)-4-[[4-[3-(2,6-dioxo-3-piperidyl)-1-methyl-indazol-7-yl]piperazin-1-yl]methyl]-3-methyl-1-piperidyl]pyrimidin-4-yl]amino]-1-isopropyl-2-oxo-1,8-naphthyridin-3-yl]oxy]-N-methyl-acetamide]
15 | +++ (30% ≤ Ymin < 50%) | 100 to 1000 nM | CNC(=O)COc1cc2cc(Nc3nc(N4CC[C@@H](CN5CCN(c6cccc7c(C8CCC(=O)NC8=O)nn(C)c67)CC5)[C@H](C)C4)ncc3Cl)cnc2n(C(C)C)c1=O (stereo partly drawn) [Compound 177c, 2-[[6-[[5-chloro-2-[(3S,4R)-4-[[4-[3-(2,6-dioxo-3-piperidyl)-1-methyl-indazol-7-yl]piperazin-1-yl]methyl]-3-methyl-1-piperidyl]pyrimidin-4-yl]amino]-1-isopropyl-2-oxo-1,8-naphthyridin-3-yl]oxy]-N-methyl-acetamide]
16 | ++++ (Ymin < 30%) | 10 to 100 nM | CNC(=O)COc1cc2cc(Nc3nc(N4CC[C@H](CN5CCN(c6cccc7c(C8CCC(=O)NC8=O)nn(C)c67)CC5)[C@@H](C)C4)ncc3Cl)cnc2n(C(C)C)c1=O (stereo partly drawn) [Compound 177d, 2-((6-((5-chloro-2-((3R,4S)-4-((4-(3-(2,6-dioxopiperidin-3-yl)-1-methyl-1H-indazol-7-yl)piperazin-1-yl)methyl)-3-methylpiperidin-1-yl)pyrimidin-4-yl)amino)-1-isopropyl-2-oxo-1,2-dihydro-1,8-naphthyridin-3-yl)oxy)-N-methylacetamide]
